Assay results reported in patent publication US20120245137A1 (Zalicus Pharmaceuticals Ltd., priority 2009, published 2012).
Where two headings read alike, the source gives them in different places.

Assays:
Format in all cases: cell-based
Human Cav 2.2 channels = Human Cav 2.2 channels (Homo sapiens, UniProt Q00975); assay: Fluorescent assay for CaV2.2 channels using potassium depolarization (VIPR/FLIPR); conditions: FLIPR data; for CAv2.2 IC50 Ratio closed/inact.: ratio closed/inactivated IC50
Description: Human Cav 2.2 channels were stably expressed in HEK293 cells along with alpha2-delta and beta subunits of voltage-gated calcium channels. An inwardly rectifying potassium channel (Kir2.3) was also expressed in these cells to allow more precise control of the cell membrane potential by extracellular potassium concentration. At low bath potassium concentration, the membrane potential is relatively negative, and is depolarized as the bath potassium concentration is raised. In this way, the bath potassium concentration can be used to regulate the voltage-dependent conformations of the channels. […] After the incubation period, Cav2.2 channel opening is triggered by addition of higher concentration of potassium (70 mM final concentration) to further depolarize the cell. The degree of state-dependent block can be estimated from the inhibitory potency of compounds after incubation in different potassium concentrations.
Calcium influx through Cav 2.2 channels is determined using a calcium sensitive fluorescent dye in combination with a fluorescent plate reader. Fluorescent changes were measured with either a VIPR (Aurora Instruments) or FLIPR (Molecular Devices) plate reader.
1. Seed cells in Poly-D-Lysine Coated 96 or 384-well plate and keep in a 3rC-IO % C02 incubator overnight.
2. Remove media, wash cells with 0.2 mL (96-well plate) or 0.05 mL (384-well plate) Dulbecco's Phosphate Buffered Saline (D-PBS) with calcium & magnesium (Invitrogen; 14040).
3. Add 0.1 mL (96-well plate) or 0.05 mL (384-well plate) of 4˜M fluor-4 (Molecular Probes; F-14202) and 0.02% Pluronic acid (Molecular Probes; P-3(00) prepared in D-PBS with calcium & magnesium (Invitrogen; 14040) supplemented with 10 mM Glucose & 10 mM HepeslNaOH; pH 7.4.
4. Incubate in the dark at 25° C. for 60-70 min.
5. Remove dye, wash cells with 0.1 mL (96-well plate) or 0.06 mL (384-well plate) of 4, 12, 25, or 30 mM Potassium Pre-polarization Buffer (PPB).
6. Add 0.1 mL (96-well plate) or 0.03 mL (384-well plate) of 4, 12, 25, 30 mM PPB with or without test compound.
7. Incubate in the dark at 25° C. for 30 min
8. Read cell plate on VIPR instrument, Excitation=480 nm, Emission=535 nm.
9. With VIPR continuously reading, add 0.1 mL (96-well plate) or 0.03 mL (384-well plate) of Depolarization Buffer (DB), which is 2× the final assay concentration, to the cell plate.

T-type calcium channel = T-type calcium channel (Homo sapiens, UniProt O95180); assay: T-type channel blocking, FLIPR data (Table 6); conditions: for CAv3.2 IC50 Ratio closed/inact.: CAv3.2, ratio closed/inactivated IC50
Chain of T-type calcium channel (O95180 whole entry): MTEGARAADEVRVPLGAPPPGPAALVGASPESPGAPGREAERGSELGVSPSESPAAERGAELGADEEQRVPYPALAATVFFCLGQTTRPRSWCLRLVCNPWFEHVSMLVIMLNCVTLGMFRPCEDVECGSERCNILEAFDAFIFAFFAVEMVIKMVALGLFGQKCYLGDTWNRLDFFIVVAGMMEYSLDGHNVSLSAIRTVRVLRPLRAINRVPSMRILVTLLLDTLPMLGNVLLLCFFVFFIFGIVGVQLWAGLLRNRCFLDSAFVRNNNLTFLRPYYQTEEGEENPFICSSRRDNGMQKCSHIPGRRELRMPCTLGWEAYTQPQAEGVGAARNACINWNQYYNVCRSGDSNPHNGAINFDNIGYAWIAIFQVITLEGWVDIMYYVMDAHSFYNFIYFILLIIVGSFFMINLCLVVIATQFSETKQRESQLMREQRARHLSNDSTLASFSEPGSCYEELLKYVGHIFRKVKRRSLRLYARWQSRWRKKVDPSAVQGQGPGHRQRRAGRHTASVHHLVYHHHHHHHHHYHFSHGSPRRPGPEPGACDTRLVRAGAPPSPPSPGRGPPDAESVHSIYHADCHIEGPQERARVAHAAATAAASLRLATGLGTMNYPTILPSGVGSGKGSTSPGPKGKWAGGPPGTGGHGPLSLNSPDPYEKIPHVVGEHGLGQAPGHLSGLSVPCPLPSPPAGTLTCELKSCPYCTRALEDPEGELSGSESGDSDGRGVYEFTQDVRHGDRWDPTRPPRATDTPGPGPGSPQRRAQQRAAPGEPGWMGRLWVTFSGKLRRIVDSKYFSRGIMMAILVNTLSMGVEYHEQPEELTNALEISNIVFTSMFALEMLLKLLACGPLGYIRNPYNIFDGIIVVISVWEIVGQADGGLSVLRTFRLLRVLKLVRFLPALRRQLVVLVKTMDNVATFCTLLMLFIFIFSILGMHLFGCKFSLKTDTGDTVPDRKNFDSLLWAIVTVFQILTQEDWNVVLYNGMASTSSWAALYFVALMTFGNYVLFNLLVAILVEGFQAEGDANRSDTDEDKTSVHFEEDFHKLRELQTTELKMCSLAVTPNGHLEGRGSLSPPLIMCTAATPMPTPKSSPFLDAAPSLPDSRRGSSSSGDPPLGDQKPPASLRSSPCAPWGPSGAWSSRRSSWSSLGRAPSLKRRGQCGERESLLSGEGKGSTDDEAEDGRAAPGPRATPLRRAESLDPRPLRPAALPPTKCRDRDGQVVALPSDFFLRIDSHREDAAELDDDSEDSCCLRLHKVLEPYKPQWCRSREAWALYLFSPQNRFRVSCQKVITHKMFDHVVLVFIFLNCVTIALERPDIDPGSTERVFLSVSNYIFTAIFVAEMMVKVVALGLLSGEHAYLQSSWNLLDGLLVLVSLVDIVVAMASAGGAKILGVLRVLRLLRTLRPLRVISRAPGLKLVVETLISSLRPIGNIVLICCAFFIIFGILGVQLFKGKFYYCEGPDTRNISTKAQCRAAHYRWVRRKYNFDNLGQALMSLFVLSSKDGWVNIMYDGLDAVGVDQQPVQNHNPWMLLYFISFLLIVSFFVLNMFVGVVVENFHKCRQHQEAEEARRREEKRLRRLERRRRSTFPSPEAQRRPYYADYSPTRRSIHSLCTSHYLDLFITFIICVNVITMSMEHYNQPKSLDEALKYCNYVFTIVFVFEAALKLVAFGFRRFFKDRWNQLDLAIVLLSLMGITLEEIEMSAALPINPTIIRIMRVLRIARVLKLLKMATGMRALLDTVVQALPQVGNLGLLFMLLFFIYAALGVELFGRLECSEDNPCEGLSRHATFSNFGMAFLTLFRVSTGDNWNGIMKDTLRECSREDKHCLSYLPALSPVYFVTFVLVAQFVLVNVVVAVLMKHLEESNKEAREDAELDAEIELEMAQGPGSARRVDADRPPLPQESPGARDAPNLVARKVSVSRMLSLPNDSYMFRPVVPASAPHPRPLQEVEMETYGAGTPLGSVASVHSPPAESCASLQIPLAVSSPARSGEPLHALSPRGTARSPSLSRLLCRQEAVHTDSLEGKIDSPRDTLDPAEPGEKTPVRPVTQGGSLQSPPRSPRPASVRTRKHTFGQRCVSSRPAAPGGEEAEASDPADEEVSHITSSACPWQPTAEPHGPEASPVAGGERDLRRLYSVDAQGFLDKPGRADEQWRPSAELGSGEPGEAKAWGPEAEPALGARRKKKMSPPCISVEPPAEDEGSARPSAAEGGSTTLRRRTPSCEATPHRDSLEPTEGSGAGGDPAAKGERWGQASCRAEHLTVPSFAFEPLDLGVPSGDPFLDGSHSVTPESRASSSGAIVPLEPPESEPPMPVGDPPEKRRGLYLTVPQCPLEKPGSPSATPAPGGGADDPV
Description: Another method, high-throughput spectrophotometric assay, utilizes loading of the cell lines with a fluorescent dye sensitive to intracellular calcium concentration and subsequent examination of the effects of compounds on the ability of depolarization by potassium chloride or other means to alter intracellular calcium levels.

CAv1.2 = CAv1.2 (Homo sapiens, UniProt Q13936); assay: FLIPR data, CAv1.2 channel blocking (Table 6)
[1] = closed state, read-out: CAv2.2 IC50 Closed
[2] = inactivated state, read-out: CAv2.2 IC50 Inact.
[3] = CAv3.2, inactivated state, read-out: CAv3.2 IC50 Inact.
[4] = closed state, read-out: CAv1.2 IC50 Closed
[5] = inactivated state, read-out: CAv1.2 IC50 Inact.
[6] = CAv3.2, closed state, read-out: CAv3.2 IC50 Closed

## N[C@@H]1CCCC[C@@H]1C(=O)NC[C@H]1C[C@H](S(=O)(=O)c2cccc(OC(F)(F)F)c2)C1 (single isomer, unassigned) [Compound 700]
Human Cav 2.2 channels; [1]
  IC50: 3.55 µM
Human Cav 2.2 channels; [2]
  IC50: 1.25 µM
Human Cav 2.2 channels
  CAv2.2 IC50 Ratio closed/inact.: 2.8
T-type calcium channel; [3]
  IC50: 10 µM

## N[C@@H]1CCCC[C@@H]1C(=O)NC[C@H]1C[C@H](S(=O)(=O)c2cc(F)cc(C(F)(F)F)c2)C1 (single isomer, unassigned) [Compound 707]
Human Cav 2.2 channels; [1]
  IC50: 10 µM
T-type calcium channel; [3]
  IC50: 10 µM

## O=C(NC[C@H]1C[C@H](S(=O)(=O)c2cccc(C(F)(F)F)c2)C1)c1ccc(Cl)cn1 [Compound 573]
CAv1.2; [4]
  IC50: ≥ 10 µM
CAv1.2; [5]
  IC50: ≥ 10 µM
Human Cav 2.2 channels; [1]
  IC50: 3.24 µM
Human Cav 2.2 channels; [2]
  IC50: 0.43 µM
Human Cav 2.2 channels
  CAv2.2 IC50 Ratio closed/inact.: 7.5
T-type calcium channel; [6]
  IC50: 8.12 µM
T-type calcium channel; [3]
  IC50: 5.83 µM
T-type calcium channel
  CAv3.2 IC50 Ratio closed/inact.: 1.4

## O=C(NC[C@H]1C[C@H](S(=O)(=O)c2cccc(C(F)(F)F)c2)C1)c1ncc(C(F)(F)F)cn1 [Compound 574]
Human Cav 2.2 channels; [1]
  IC50: 10 µM
Human Cav 2.2 channels; [2]
  IC50: 1.29 µM
Human Cav 2.2 channels
  CAv2.2 IC50 Ratio closed/inact.: 7.8

## CC(C)([C@H]1C[C@@H](NC(=O)c2ccc(S(C)(=O)=O)cc2Cl)C1)S(=O)(=O)c1cccc(C(F)(F)F)c1 [Compound 577]
CAv1.2; [4]
  IC50: ≥ 10 µM
CAv1.2; [5]
  IC50: ≥ 10 µM
Human Cav 2.2 channels; [1]
  IC50: 10 µM
Human Cav 2.2 channels; [2]
  IC50: 0.64 µM
Human Cav 2.2 channels
  CAv2.2 IC50 Ratio closed/inact.: 15.6

## CC(C)([C@H]1C[C@@H](NC(=O)c2ncc(C(F)(F)F)cn2)C1)S(=O)(=O)c1cccc(C(F)(F)F)c1 [Compound 583]
CAv1.2; [4]
  IC50: ≥ 10 µM
Human Cav 2.2 channels; [1]
  IC50: 10 µM
Human Cav 2.2 channels; [2]
  IC50: 1.12 µM
Human Cav 2.2 channels
  CAv2.2 IC50 Ratio closed/inact.: 8.9
T-type calcium channel; [3]
  IC50: 10 µM

## CC(C)([C@H]1C[C@@H](NC(=O)c2ccc(C(F)(F)F)cc2S(C)(=O)=O)C1)S(=O)(=O)c1cc(F)cc(C(F)(F)F)c1 [Compound 585]
CAv1.2; [5]
  IC50: ≥ 10 µM
Human Cav 2.2 channels; [1]
  IC50: 10 µM
Human Cav 2.2 channels; [2]
  IC50: 1.08 µM
Human Cav 2.2 channels
  CAv2.2 IC50 Ratio closed/inact.: 9.3
T-type calcium channel; [6]
  IC50: ≥ 10 µM
T-type calcium channel; [3]
  IC50: 10 µM
T-type calcium channel
  CAv3.2 IC50 Ratio closed/inact.: 1

## CC(C)([C@H]1C[C@@H](NC(=O)c2ccnc(C(F)(F)F)n2)C1)S(=O)(=O)c1cc(F)cc(C(F)(F)F)c1 [Compound 588]
CAv1.2; [4]
  IC50: ≥ 10 µM
CAv1.2; [5]
  IC50: ≥ 10 µM
Human Cav 2.2 channels; [1]
  IC50: 5.86 µM
Human Cav 2.2 channels; [2]
  IC50: 0.95 µM
Human Cav 2.2 channels
  CAv2.2 IC50 Ratio closed/inact.: 6.2
T-type calcium channel; [6]
  IC50: ≥ 10 µM
T-type calcium channel; [3]
  IC50: 3.27 µM
T-type calcium channel
  CAv3.2 IC50 Ratio closed/inact.: 3.1

## CC(C)([C@H]1C[C@H](NC(=O)c2ccc(C(F)(F)F)cc2S(C)(=O)=O)C1)S(=O)(=O)c1cc(F)cc(C(F)(F)F)c1 [Compound 592]
CAv1.2; [4]
  IC50: ≥ 10 µM
CAv1.2; [5]
  IC50: ≥ 10 µM
Human Cav 2.2 channels; [1]
  IC50: 10 µM
Human Cav 2.2 channels; [2]
  IC50: 0.46 µM
Human Cav 2.2 channels
  CAv2.2 IC50 Ratio closed/inact.: 21.7
T-type calcium channel; [6]
  IC50: ≥ 10 µM
T-type calcium channel; [3]
  IC50: 10 µM
T-type calcium channel
  CAv3.2 IC50 Ratio closed/inact.: 1

## Cc1nc(S(=O)(=O)N[C@H]2C[C@@H](C(C)(C)S(=O)(=O)c3cc(F)cc(C(F)(F)F)c3)C2)cn1C [Compound 604]
CAv1.2; [4]
  IC50: ≥ 10 µM
CAv1.2; [5]
  IC50: ≥ 10 µM
Human Cav 2.2 channels; [1]
  IC50: 10 µM
Human Cav 2.2 channels; [2]
  IC50: 4.38 µM
Human Cav 2.2 channels
  CAv2.2 IC50 Ratio closed/inact.: 2.3
T-type calcium channel; [6]
  IC50: ≥ 10 µM

## Cc1nc(S(=O)(=O)N[C@H]2C[C@@H](C(C)(C)S(=O)(=O)c3cccc(C(F)(F)F)c3)C2)cn1C [Compound 631]
Human Cav 2.2 channels; [2]
  IC50: 6.9 µM
Human Cav 2.2 channels
  CAv2.2 IC50 Ratio closed/inact.: 1.4

## CC(C)([C@H]1C[C@@H](NC(=O)c2ncc(C(F)(F)F)cc2S(C)(=O)=O)C1)S(=O)(=O)c1cccc(OC(F)(F)F)c1 [Compound 644]
CAv1.2; [5]
  IC50: ≥ 10 µM
Human Cav 2.2 channels; [1]
  IC50: 10 µM
Human Cav 2.2 channels; [2]
  IC50: 0.9 µM
Human Cav 2.2 channels
  CAv2.2 IC50 Ratio closed/inact.: 11.1
T-type calcium channel; [6]
  IC50: ≥ 10 µM
T-type calcium channel; [3]
  IC50: 10 µM
T-type calcium channel
  CAv3.2 IC50 Ratio closed/inact.: 1

## CC(C)([C@H]1C[C@@H](NC(=O)CC2(N)CCCCC2)C1)S(=O)(=O)c1cccc(C(F)(F)F)c1 [Compound 652]
Human Cav 2.2 channels; [1]
  IC50: 8.87 µM
Human Cav 2.2 channels; [2]
  IC50: 1.19 µM
Human Cav 2.2 channels
  CAv2.2 IC50 Ratio closed/inact.: 7.5
T-type calcium channel; [3]
  IC50: 10 µM

## CC(C)([C@H]1C[C@H](NC(=O)CC2(N)CCCCC2)C1)S(=O)(=O)c1cc(F)cc(C(F)(F)F)c1 [Compound 654]
CAv1.2; [4]
  IC50: ≥ 10 µM
CAv1.2; [5]
  IC50: ≥ 10 µM
Human Cav 2.2 channels; [1]
  IC50: 8.47 µM
Human Cav 2.2 channels; [2]
  IC50: 1.44 µM
Human Cav 2.2 channels
  CAv2.2 IC50 Ratio closed/inact.: 5.9
T-type calcium channel; [3]
  IC50: 10 µM
